Test results as given in article PMC8486872, “A rational blueprint for the design of chemically-controlled protein switches” (Nature Communications, 2021).
Several values for one entry are separate records, joined by “and”; a condition that tells them apart may be missing. Equal entries are not always repeated.

Key:
[1] = test system: Bcl-XL:LD3 complex (CDH-1); assay: SPR drug competition assay, Bcl-XL:LD3 (CDH-1) with Drug-1; format: binding; conditions: Fig S10d
Description: Drug IC50s of disrupting CDH heterodimers were measured on a Biacore 8 K device. 4 µM of LD3 and its variants (LD3_v1-3) or LD6 were mixed with their respective drugs. […] Multiple-cycle injection of the protein-drug complex with different stoichiometry were performed to measure the decrease of maximal RUs (response units at 120 sec). Apparent IC50s were obtained using the inhibition versus response fitting models in prism software (Version 8.3.0).
Apparent IC50s of SPR drug competition assay were calculated using three-parameter nonlinear regression in GraphPad Prism (Version 8.3.0). Representative data of cellular assays are presented as individual values and mean values (bars). n = 3 refers to biological replicates. All IC50/EC50 values of cellular assays (CDH-TF, CDH-GEMS, AIR-TF and AIR-GEMS) reported were calculated using four-parameter nonlinear regression ± s.d. […]
Readouts from the
sensorgrams were extracted at the time point 120 s to calculate the IC50s using a three-parameter

[2] = test system: JAK/STAT pathway SEAP expression in HEK293T cells; assay: CDH-GEMS receptor signaling SEAP assay; format: cell-based; conditions: Suppl Fig 9b
From the text: To test modularity and performance robustness of the CDHs in different molecular contexts, we inserted these modules in the generalizable extracellular molecule sensor (GEMS) receptor signaling pathway platform[24] and built CDH-GEMS. In these constructs the CDHs are localized extracellularly and function as ectodomain switches, fused to the backbone of the erythropoietin receptor, and an intracellular interleukin 6 receptor domain which activates the JAK/STAT pathway (Fig. 3d). The CDH-GEMS trigger the activation of the JAK/STAT pathway by the dimerization of their subunits. Thus, the drugs are expected to split the CDHs inactivating the signaling pathway as assessed by the expression of the reporter protein SEAP. All three CDH-GEMS were responsive to their respective drugs dynamic response range varied from approximately 6-fold (CDH-2) to 8-fold (CDH-1,3) (Fig. 3e). […] The CDH-GEMS were also reversible upon intermittent drug treatment (Supplementary Fig. 7h, i). Despite that comparisons between CDH-TFs and CDH-GEMS are not straightforward due to differences in the reporter signaling pathways, we observe a general trend for the CDHs to present lower IC50s when used as extracellular modules, which is consistent with overcoming drug permeability issues in cells.
HEK293T cells were maintained in DMEM medium with 10% FBS (Gibco) and Pen/Strep (Thermo Fisher). Cells were maintained and split every two days at around 80% confluence. HEK293T cells were seeded 24 h before transfection, and transfected with the lipofectamine 3000 kit (Thermo Fisher). Plasmids were cotransfected according to the Table S7. For the drug OFF-switch experiments, drugs were added 12 h post transfection and incubated with cells for 24 h before the SEAP detection assay.
Secreted alkaline phosphatase (SEAP) activity (U/L) in cell culture supernatants was quantified by kinetic measurements at 405 nm (1 min/measurement for 30 cycles) of absorbance increase due to phosphatase-mediated hydrolysis of para-nitrophenyl phosphate (pNPP).
Apparent IC50s of SPR drug competition assay were calculated using three-parameter nonlinear regression in GraphPad Prism (Version 8.3.0). Representative data of cellular assays are presented as individual values and mean values (bars). n = 3 refers to biological replicates. All IC50/EC50 values of cellular assays (CDH-TF, CDH-GEMS, AIR-TF and AIR-GEMS) reported were calculated using four-parameter nonlinear regression ± s.d.
Supplementary Figure 9: Comparison of ON-state reporter expression of weak affinity variants of LD3 in CDH-1/2-GEMS platform. a) ON-state expression of CDH-1-GEMS with LD3 and LD3_v3. b) Drug dose-dependent responses in engineered cells determined for the CDH-1-GEMS with LD3 and LD3_v3. c) ON-state expression of CDH-2-GEMS with LD3 and LD3_v3. d) Drug dose-dependent responses in engineered cells determined for the CDH-2-GEMS with LD3 and LD3_v3. In the data shown HEK293T cells were […]
quantification was done 24 hours after drug treatment. a, c) The bar charts show the mean ± s.d. of n = 3 biologically independent samples overlaid with a scatter dot plot of the original data points. b, d) Each […]
parameter nonlinear regression.
(1 picture or pasted object on this page, not shown here)

CN(C)CC#Cc1ccc(OCCCc2sc(N3CCc4cccc(C(=O)Nc5nc6ccccc6s5)c4C3)nc2C(=O)O)c(F)c1 [Drug-1, A-1155463]
IC50 ([1]; Bcl-Xl:LD3, best-fit, inhibitor vs. response (three parameters)): 0.22 nM | logIC50 ([1]; Bcl-Xl:LD3, best-fit, three parameters, Drug-1 in nM): -0.658 | Bcl-Xl:LD3 response ([1]; Drug-1 0.001 nM): 275.326 and 251.306 and 243.642 | Bcl-Xl:LD3 response ([1]; Drug-1 0.005 nM): 242.985 and 229.287 and 224.833 | Bcl-Xl:LD3 response ([1]; Drug-1 0.01 nM): 223.576 and 215.113 and 215.946 | Bcl-Xl:LD3 response ([1]; Drug-1 0.05 nM): 225.211 and 226.402 and 224.55 | Bcl-Xl:LD3 response ([1]; Drug-1 0.1 nM): 186.039 and 182.298 and 182.078 | Bcl-Xl:LD3 response ([1]; Drug-1 0.5 nM): 123.883 and 120.417 and 119.693 | Bcl-Xl:LD3 response ([1]; Drug-1 1 nM): 121.627 and 115.582 and 111.718 | Bcl-Xl:LD3 response ([1]; Drug-1 5 nM): 122.215 and 115.477 and 118.457 | Bcl-Xl:LD3 response ([1]; Drug-1 10 nM): 92.0281 and 92.2496 and 88.1833 | Bcl-Xl:LD3 response ([1]; Drug-1 50 nM): 84.1354 and 86.416 and 84.392 | Bcl-Xl:LD3 response ([1]; Drug-1 100 nM): 81.6073 and 77.884 and 79.2329 | Bcl-Xl:LD3 response ([1]; Drug-1 500 nM): 65.1408 and 62.8874 and 62.5965 | Bcl-Xl:LD3 response ([1]; Drug-1 1000 nM): 42.6601 and 38.7292 and 40.0074 | SEAP % ([2]; BclxL:LD3, 0.001 nM): 18.0122% and 17.4443% and 16.8298% | SEAP % ([2]; BclxL:LD3, 0.005 nM): 16.6899% and 17.1312% and 17.1781% | SEAP % ([2]; BclxL:LD3, 0.01 nM): 17.4444% and 15.5469% and 16.1047% | SEAP % ([2]; BclxL:LD3, 0.05 nM): 15.1537% and 15.6285% and 14.5618% | SEAP % ([2]; BclxL:LD3, 0.1 nM): 14.6667% and 14.1653% and 14.4377% | SEAP % ([2]; BclxL:LD3, 0.5 nM): 13.4918% and 13.7573% and 13.7645% | SEAP % ([2]; BclxL:LD3, 1 nM): 11.4623% and 11.7897% and 11.4884% | SEAP % ([2]; BclxL:LD3, 5 nM): 7.87% and 8.2239% and 7.705% | SEAP % ([2]; BclxL:LD3, 10 nM): 5.487% and 5.0968% and 5.0693% | SEAP % ([2]; BclxL:LD3, 50 nM): 4.04% and 4.459% and 3.462% | SEAP % ([2]; BclxL:LD3, 100 nM): 4.1212% and 3.83% and 3.424% | SEAP % ([2]; BclxL:LD3, 500 nM): 3.2684% and 3.043% and 3.776% | SEAP % ([2]; BclxL:LD3, 1000 nM): 3.47% and 3.522% and 3.463% | SEAP % ([2]; BclxL:LD3_v3, 0.001 nM): 16.3076% and 17.437% and 16.859% | SEAP % ([2]; BclxL:LD3_v3, 0.005 nM): 14.9031% and 15.6748% and 15.9103% | SEAP % ([2]; BclxL:LD3_v3, 0.01 nM): 13.8744% and 14.7636% and 15.1685% | SEAP % ([2]; BclxL:LD3_v3, 0.05 nM): 12.8457% and 12.494% and 13.0699% | SEAP % ([2]; BclxL:LD3_v3, 0.1 nM): 9.936% and 9.732% and 9.834% | SEAP % ([2]; BclxL:LD3_v3, 0.5 nM): 8.327% and 7.455% and 7.64% | SEAP % ([2]; BclxL:LD3_v3, 1 nM): 9.561% and 8.788% and 8.726% | SEAP % ([2]; BclxL:LD3_v3, 5 nM): 4.582% and 4.8104% and 5.942% | SEAP % ([2]; BclxL:LD3_v3, 10 nM): 4.563% and 3.586% and 4.47% | SEAP % ([2]; BclxL:LD3_v3, 50 nM): 5.174% and 5.025% and 4.8595% | SEAP % ([2]; BclxL:LD3_v3, 100 nM): 4.401% and 4.122% and 4.248% | SEAP % ([2]; BclxL:LD3_v3, 500 nM): 4.318% and 3.762% and 3.577% | SEAP % ([2]; BclxL:LD3_v3, 1000 nM): 4.822% and 4.215% and 3.859%
